Target: bovine pancreatic DNase I (Bos taurus, UniProt P00639)
Conditions: for reduction of enzyme activity induced by the addition of salt: 100 mM sodium chloride added to reaction with 40% (v/v) alcohol (FIG. 2); for DNase I activity, % of Standard conditions: alcohol at 40% (v/v) in the Standard reaction, without sodium chloride (FIG. 2)
Protocol: The enzymatic hydrolysis of calf thymus genomic DNA was assayed using a method modified from that described by Desai and Shankar (Eur. J. Biochem., 2000; 267: 5123-5135). The standard reaction mixture was 0.1 mL volume, containing 30 μg of sonicated native calf thymus genomic DNA (Sigma, St. Louis Mo., #D-3664), in a buffer solution composed of 100 mM Tris HCl(pH 8.0)/10 mM MgSO4/1 mM CaCl2, with appropriately diluted DNase I (usually 0.02-1.0 Enzyme Units, as defined below). The reaction was initiated by the addition of enzyme, with incubation at room temperature for a defined period of time (usually 10-20 minutes), after which the reaction was terminated by rapid sequential addition of 0.1 mL of 1 mg/mL Bovine Serum Albumin (Sigma, #A3803) and 1.0 mL of ice cold 2% (v/v) Perchloric Acid. The terminated reaction mixture was vortex mixed, then chilled on ice for 20-30 minutes, follwed by centrifugation at 16,000×g for 10 minutes at 4 degrees centrigrade. The clarified supernatant contains acid-soluble oligonucleotides liberated by the action of DNase I-like activity, at concentrations determined using absorbance measurements determined in a 1 cm pathlength cell in the Agilent 8453 spectrophotometer (Agilent Technologies, Wilmington Del.). A molar extinction coefficient of 10,000 M^−1cm^−1 was employed for oligonucleotide concentration estimation in the acidic solution. Unit activity under these assay conditions is defined as umol of acid-soluble oligonucleotides generated per minute at 25 degrees centigrade. In the experiments shown in the examples that follow, bovine pancreatic DNase I is employed to illustrate the effects of various manipulations on the activity of this enzyme. Typically, the reaction employs approximately 0.1 enzyme units, as defined by the Kunitz assay, as discussed above (see Kunitz. J. Gen. Physiol. 1950; 33:349-362).
Bovine pancreatic DNase I (Fermentas, #EN0523) was assayed for gDNA hydrolytic activity, as described above, using the Standard reaction conditions, but modified by the inclusion of various quantities of iso-propanol (i-propanol, 2-propanol), with or without the further inclusion of sodium chloride at 100 mM.

Sequence of bovine pancreatic DNase I (P00639 23-282): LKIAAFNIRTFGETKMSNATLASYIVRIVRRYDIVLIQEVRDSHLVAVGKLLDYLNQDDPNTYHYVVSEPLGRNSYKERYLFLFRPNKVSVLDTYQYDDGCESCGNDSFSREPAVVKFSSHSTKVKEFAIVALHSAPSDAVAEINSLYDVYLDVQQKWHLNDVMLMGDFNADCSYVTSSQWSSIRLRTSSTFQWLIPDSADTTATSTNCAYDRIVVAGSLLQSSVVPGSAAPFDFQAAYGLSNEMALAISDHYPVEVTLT

DNase I activity, % of Standard conditions | DNase I activity, % of the Standard activity level (20% i-propanol added to solution containing 100 mM sodium chloride (FIG. 1)) [%] | DNase I activity relative to standard conditions (20% i-propanol, no sodium chloride, room temperature (FIG. 1)) | DNase I enzyme activity observed (high salt (100 mM sodium chloride) and high alcohol content (FIG. 1)) | DNase I activity, % of the standard condition (higher concentrations of i-propanol (above 20%, up to and above 80%), no sodium chloride (FIG. 1)) | DNase I activity, % of Standard reaction conditions (alcohol at 40% (v/v) plus 100 mM sodium chloride (FIG. 2)) | Compound | reduction of enzyme activity induced by the addition of salt
40% | – | – | – | – | – | CCO [Ethanol] | three-fold reduction
40% | 101 | more than doubling the activity | greater than 50% | about 50% | – | CC(C)O [i-propanol, iso-propanol] | least prevented the inhibition of the enzyme by salt
about 10% | – | – | – | – | less than 5% | n-propanol | –

Reference: patent publication US20060223073A1, “Methods of using a DNase I-like enzyme” (priority 2005, published 2006)
